Measurements reported in patent publication US20250312469A1 (CANGET BIOTEKPHARMA, priority 2024, published 2025).
Values joined by “and” are separate entries in the source; they are usually repeats but may differ in a detail not shown here. Equal entries are not always repeated.

Legend:
CYP2B6 = target: T1, CYP2B6 (Homo sapiens, UniProt P20813); experiment: in vitro; conditions: human, microsomes, pH 7.4
T1 sequence (P20813 1-491): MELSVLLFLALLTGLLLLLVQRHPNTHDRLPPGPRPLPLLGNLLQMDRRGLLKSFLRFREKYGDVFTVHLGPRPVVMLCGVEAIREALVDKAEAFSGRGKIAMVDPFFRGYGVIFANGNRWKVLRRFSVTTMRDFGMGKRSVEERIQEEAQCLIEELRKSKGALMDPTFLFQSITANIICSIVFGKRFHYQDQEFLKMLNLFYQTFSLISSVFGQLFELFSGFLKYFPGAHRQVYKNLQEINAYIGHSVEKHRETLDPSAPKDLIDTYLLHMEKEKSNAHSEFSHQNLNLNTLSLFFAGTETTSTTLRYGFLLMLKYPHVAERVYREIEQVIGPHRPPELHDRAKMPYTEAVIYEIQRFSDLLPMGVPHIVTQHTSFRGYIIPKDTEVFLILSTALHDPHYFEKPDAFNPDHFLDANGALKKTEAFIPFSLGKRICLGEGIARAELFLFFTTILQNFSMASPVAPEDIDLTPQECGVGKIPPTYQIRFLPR
Procedure: (§1) The CYP reaction was initiated by adding a CYP probe substrate and incubating at 37° C. for 10-20 minutes, depending on the individual CYP isoform. The reaction was terminated with the addition of 400 μL ice-cold acetonitrile (ACN). […] Positive controls were performed in parallel using a known inhibitor of the individual CYP isoform. […] The samples were then transferred to 96-well plates and analyzed by LC-MS/MS (Appendix 1).

CYP3A = experiment: in vitro; conditions: human, microsomes, pH 7.4
Procedure: as §1

CYP1A2 mRNA = experiment: CYP induction (mRNA) in fresh human hepatocytes; conditions: human, 3 days, 50 µM
Description: (§2) (2) CYP positive inducers (Table 58a) and Williams' Medium E (WME) were purchased from Sigma-Aldrich (St. Louis, MO, USA). Dulbecco's phosphate-buffered saline (DPBS, pH 7.4) was purchased from Invitrogen (Carlsbad, CA, USA). Hepatocyte culture medium (serum-free) for CYP induction was purchased from XenoTech (catalog #K2300, Lenexa, KS, USA). The CellTiter 96 AQueous ONE Solution Cell Proliferation Assay was obtained from Promega (Madison, WI, USA). All other chemicals and reagents were of analytical grade or higher. (3) Fresh human hepatocytes (Table 58b) seeded at ˜0.15 million cells/well in 48-well plates (˜0.75 million cells/mL) were purchased from Thermo Fisher Scientific (Grand Island, NY, USA) and BioreclamationIVT (Baltimore, MD, USA).
(§3) Vehicle controls were treated in parallel with hepatocyte culture medium. […] (2) After the CYP induction treatment, the cells were used for a cell viability assay. […] The absorbance of formazan, which is proportional to the number of viable cells, was measured spectrophotometrically using the CellTiter 96 AQueous ONE Solution Cell Proliferation Assay. […] (3) Total RNA was isolated from the treated cells using the RNeasy mini kit (Qiagen, Valencia, CA, USA) and treated with RNase-free DNase (Qiagen) following the manufacturer's protocols. The concentration of RNA was determined using a Qubit Fluorometer with a Qubit RNA HS assay kit (Invitrogen). cDNA was synthesized from up to 1 μg of the total RNA harvested from the cells using a QuantiTect RT kit (Qiagen). Analysis of gene expression by qPCR was performed using the LightCycler 480 System (Roche Diagnostics Corporation, Indianapolis, IN, USA).

[1] = HPβCD-FL118 complex dissolution test; type: physicochemical; conditions: 37° C.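 Further: 20 mL buffer stirred at 100 rpm.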
Procedure: The collected samples were analyzed for the concentrations of the supernatants by HPLC.

P-gp = P-gp (Homo sapiens, UniProt P08183); conditions: Caco-2; digoxin as substrate; 1.0 μM FL118 or 1.0 μM Valspodar
human hepatocytes = experiment: Cell viability (MTS) after CYP induction treatment; conditions: donor 2, control inducers (OME, PB, RIF)
Procedure: as §3

[2] = tested on: L5178Y TK+/− mouse lymphoma cells; experiment: Mouse Lymphoma Assay (MLA); conditions: for Avg. MF (Mutant Frequency) / Avg. SG: 24 h treatment, −S9
Procedure: The cells were prepared in Fischer's or RPMI media supplemented with 10% heat-inactivated horse serum, penicillin-streptomycin, Lglutamine, sodium pyruvate and Pluronic F68. In the initial assay, prior to use in the test, the culture was purged of preexisting TK−/− mutations by exposure to THMG treated medium for 1 day, followed by a transfer to THG medium for 1 to 2 days. This was performed 5 to 8 days prior to testing. In the expanded assay a vial of frozen cells was thawed and used within 5 to 8 days of growth. No washing was needed because the cells were purged of preexisting TK−/− mutations by exposure to THMG treated medium for 1 day and then THG medium for 1 day prior to freezing. […] Colonies were counted using an automated colony counter or manually. After 4 or 24 hours of exposure, the cells were grown for recovery and expression for approximately 48 hours before plated in TFT cloning media. A second set of plates were prepared without TFT to assess viability of cells following treatment. […] Colonies observed on the TFT plate were defined as small or large colonies. […] (3) Of note, the metabolic activation system in this assay consisted of a rat liver homogenate (S-9 microsomal fraction), which was delivered to the test system in the presence of a core mix consisting of NADP and cofactors for NADPH-supported oxidation. The S9 was prepared using the following recipe (per treatment tube); 1 mL of 20 mg/mL S9, 32 mg of NADP, 60 mg of isocitric acid, 40 μL of calcium chloride (CaCl2) and 3.0 mL of cell cultural media. All treatments were performed in duplicate. The treatment tubes were placed in a CO2 incubator at 37±1° C. with continuous agitation.

CRPC LAPC9 tumors = experiment: LAPC9 CRPC tumor model; type: in vivo, SCID mice; conditions: 10 mg/kg i.p., 6 times over 2 weeks
in vitro [3] = experiment: in vitro
[4] = Liver microsome stability; conditions: human liver microsome; control compound
in vitro [5] = conditions: both, human, s9
CYP2B6 mRNA = experiment: CYP induction (mRNA) in fresh human hepatocytes; conditions: human
Description: as §2, §3

Blood partitioning = conditions: human whole blood
DDX5 = DDX5 (Homo sapiens, UniProt P17844); experiment: Isothermal titration calorimetry (ITC), Flag-DDX5; type: binding; conditions: ITC, 25° C., 1×PBS pH7.4 with 8% DMSO
DDX5, sequence (P17844 whole entry): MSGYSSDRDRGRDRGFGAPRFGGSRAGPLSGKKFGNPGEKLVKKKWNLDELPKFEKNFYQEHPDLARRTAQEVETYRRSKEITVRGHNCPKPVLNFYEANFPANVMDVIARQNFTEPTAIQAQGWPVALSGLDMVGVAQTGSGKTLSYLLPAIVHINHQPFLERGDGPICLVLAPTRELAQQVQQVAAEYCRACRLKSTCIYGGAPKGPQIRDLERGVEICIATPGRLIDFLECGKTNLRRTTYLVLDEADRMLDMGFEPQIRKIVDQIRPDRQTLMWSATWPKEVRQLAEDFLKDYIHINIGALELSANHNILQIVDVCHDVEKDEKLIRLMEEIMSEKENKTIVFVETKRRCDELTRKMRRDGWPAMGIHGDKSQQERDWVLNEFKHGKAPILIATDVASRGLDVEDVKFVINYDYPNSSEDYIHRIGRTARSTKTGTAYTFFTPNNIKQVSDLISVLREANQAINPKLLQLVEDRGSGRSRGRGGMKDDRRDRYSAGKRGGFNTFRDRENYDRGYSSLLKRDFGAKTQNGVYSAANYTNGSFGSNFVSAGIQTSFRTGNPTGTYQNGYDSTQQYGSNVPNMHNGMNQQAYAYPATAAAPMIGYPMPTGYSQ

P-gp, sequence (P08183 whole entry): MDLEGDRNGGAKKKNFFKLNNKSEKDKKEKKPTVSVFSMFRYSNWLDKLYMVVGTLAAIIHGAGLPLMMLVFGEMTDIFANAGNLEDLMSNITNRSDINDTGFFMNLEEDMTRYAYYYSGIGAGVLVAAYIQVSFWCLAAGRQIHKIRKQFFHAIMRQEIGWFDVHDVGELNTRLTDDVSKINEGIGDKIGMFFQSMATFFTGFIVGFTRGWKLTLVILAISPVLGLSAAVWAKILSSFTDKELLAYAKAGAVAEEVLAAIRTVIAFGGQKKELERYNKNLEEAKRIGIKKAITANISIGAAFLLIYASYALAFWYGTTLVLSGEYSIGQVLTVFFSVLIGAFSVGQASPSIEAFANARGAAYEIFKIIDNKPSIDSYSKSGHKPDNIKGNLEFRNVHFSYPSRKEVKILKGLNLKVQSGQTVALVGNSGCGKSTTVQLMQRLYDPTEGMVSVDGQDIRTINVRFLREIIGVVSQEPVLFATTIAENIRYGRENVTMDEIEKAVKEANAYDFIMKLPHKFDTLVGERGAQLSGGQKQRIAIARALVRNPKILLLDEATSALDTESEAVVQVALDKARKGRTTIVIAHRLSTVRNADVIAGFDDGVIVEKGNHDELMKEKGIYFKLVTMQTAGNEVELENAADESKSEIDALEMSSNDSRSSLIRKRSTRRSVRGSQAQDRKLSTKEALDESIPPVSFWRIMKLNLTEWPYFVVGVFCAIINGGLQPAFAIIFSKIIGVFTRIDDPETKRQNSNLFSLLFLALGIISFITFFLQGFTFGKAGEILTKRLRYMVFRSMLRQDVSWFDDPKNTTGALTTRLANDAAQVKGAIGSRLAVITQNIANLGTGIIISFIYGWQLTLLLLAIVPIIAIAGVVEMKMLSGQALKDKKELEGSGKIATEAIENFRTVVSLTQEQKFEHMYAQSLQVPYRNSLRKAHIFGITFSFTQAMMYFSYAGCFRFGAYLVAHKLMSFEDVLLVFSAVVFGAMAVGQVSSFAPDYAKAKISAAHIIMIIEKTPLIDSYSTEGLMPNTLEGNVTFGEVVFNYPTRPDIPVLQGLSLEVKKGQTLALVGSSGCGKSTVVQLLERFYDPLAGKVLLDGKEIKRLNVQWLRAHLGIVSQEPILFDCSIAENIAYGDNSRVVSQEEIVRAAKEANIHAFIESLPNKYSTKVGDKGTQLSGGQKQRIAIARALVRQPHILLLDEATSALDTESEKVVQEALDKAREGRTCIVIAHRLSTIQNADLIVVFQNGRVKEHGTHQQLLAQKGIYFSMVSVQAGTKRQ

S=P(N1CC1)(N1CC1)N1CC1 [Thio-TEPA]
% Inhibition (Positive Control) (CYP2B6): 71.5%

CC(=O)N1CCN(c2ccc(OCC3COC(Cn4ccnc4)(c4ccc(Cl)cc4Cl)O3)cc2)CC1 (stereo not shown) [Ketoconazole]
% Inhibition (Positive Control) (CYP3A): 94.5%

COc1ccc2[nH]c([S+]([O-])Cc3ncc(C)c(OC)c3C)nc2c1 (stereo not shown) [Omeprazole (OME), Omeprazole, reference compound]
% of OME-treated Cells (CYP1A2 mRNA): 100%

CC[C@@]1(O)C(=O)OCc2c1cc1n(c2=O)Cc2cc3cc4c(cc3nc2-1)OCO4 [API]
Concentration (dissolution) ([1]; pH 1.2, 5 min): 430 ng/mL
Concentration (dissolution) ([1]; pH 1.2, 10 min): 1550 ng/mL
Concentration (dissolution) ([1]; pH 1.2, 15 min): 470 ng/mL
Concentration (dissolution) ([1]; pH 1.2, 30 min): 640 ng/mL
Concentration (dissolution) ([1]; pH 1.2, 45 min): 510 ng/mL
Concentration (dissolution) ([1]; pH 1.2, 60 min): 1430 ng/mL
Concentration (dissolution) ([1]; pH 1.2, 90 min): 1360 ng/mL
Concentration (dissolution) ([1]; pH 1.2, 120 min): 4470 ng/mL
Concentration (dissolution) ([1]; pH 6.8, 5 min): 960 ng/mL
Concentration (dissolution) ([1]; pH 6.8, 10 min): 190 ng/mL
Concentration (dissolution) ([1]; pH 6.8, 15 min): 310 ng/mL
Concentration (dissolution) ([1]; pH 6.8, 30 min): 1110 ng/mL
Concentration (dissolution) ([1]; pH 6.8, 45 min): 310 ng/mL
Concentration (dissolution) ([1]; pH 6.8, 60 min): 900 ng/mL
Concentration (dissolution) ([1]; pH 6.8, 90 min): 970 ng/mL
Concentration (dissolution) ([1]; pH 6.8, 120 min): 1430 ng/mL

C/C=C/C[C@@H](C)C(=O)[C@H]1C(=O)N[C@@H](C(C)C)C(=O)N(C)CC(=O)N(C)[C@@H](CC(C)C)C(=O)N[C@@H](C(C)C)C(=O)N(C)[C@@H](CC(C)C)C(=O)N[C@@H](C)C(=O)N[C@H](C)C(=O)N(C)[C@@H](CC(C)C)C(=O)N(C)[C@@H](CC(C)C)C(=O)N(C)[C@@H](C(C)C)C(=O)N1C [valspodar, reference compound]
P-gp Inhibition Potential Classification (P-gp): Positive (ER≥2.0 without inhibitor, and reduced by ≥50% with inhibitor: Positive)

CO[C@H]1/C=C/O[C@@]2(C)Oc3c(C)c(O)c4c(O)c(c(/C=N/N5CCN(C)CC5)c(O)c4c3C2=O)NC(=O)/C(C)=C\C=C\[C@H](C)[C@H](O)[C@@H](C)[C@@H](O)[C@@H](C)[C@H](OC(C)=O)[C@@H]1C [Rifampicin (RIF), Rifampicin, reference compound]
Formazan Absorbance Mean (human hepatocytes): 1.37

CC[C@@]1(O)C(=O)OCc2c1cc1n(c2=O)Cc2cc3cc4c(cc3nc2-1)OCO4 [Test Article]
Avg. MF (Mutant Frequency) ([2]; Test Article 0.1 uM): 345 mutants/1×10^6 cells
Avg. SG ([2]; Test Article 0.1 uM): 29.1
Avg. MF (Mutant Frequency) ([2]; Test Article .01 uM): 125 mutants/1×10^6 cells
Avg. SG ([2]; Test Article .01 uM): 66.2

CNC(=O)c1ccc(N2C(=S)N(c3ccc(C#N)c(C(F)(F)F)c3)C(=O)C2(C)C)cc1F [Enza, enzalutamide, reference compound]
antitumor efficacy (CRPC LAPC9 tumors): not sensitive to Enza

C[C@]12CC[C@H]3[C@@H](CCC4=CC(=O)CC[C@@]43C)[C@@H]1CC[C@@H]2O [testosterone, reference compound]
hepatocyte CLint (in vitro [3]; both, human, hepatocytes, pH 7.4): 212 µL/min/1e6 cells
half-life (in vitro [3]; cryopreserved human hepatocytes, control compound): 2.2 min
CLint [4]: 0.0478 ml/min/mg protein
half-life [4]: 29 min
microsomal CLint (in vitro [5]): 20.7 µL/min/mg

CCC1(c2ccccc2)C(=O)NC(=O)NC1=O [Phenobarbital (PB), Phenobarbital, reference compound]
% of PB-treated Cells (CYP2B6 mRNA): 100%

NS(=O)(=O)c1cc(C2(O)NC(=O)c3ccccc32)ccc1Cl (stereo not shown) [Chlorthalido]
RBC to Plasma Partitioning (KRBC/P) (Blood partitioning): 19.7

COS(C)(=O)=O [methyl methanesulfonate (MMS), methyl methanesulfonate]
Average SG ([2]; mouse, 24 h, 5 μg/mL): 48.2
Avg. % of IMF Small Colony ([2]; mouse, 24 h, 5 μg/mL): 52.4%
Avg. IMF (Induced Mutant Frequency) ([2]; mouse, 24 h, 5 μg/mL): 458 mutants/1×10^6 cells
Avg. IMF Small Colony ([2]; mouse, 24 h, 5 μg/mL): 240 mutants/1×10^6 cells
Avg. RTG (Relative Total Growth) ([2]; mouse, 24 h, 5 μg/mL): 38.7%
Relative Suspension Growth (%) ([2]; mouse, 24 h, 5 μg/mL): 62.5%
Average SG ([2]; mouse, 24 h, 8 μg/mL): 26.2
Avg. % of IMF Small Colony ([2]; mouse, 24 h, 8 μg/mL): 54.7%
Avg. IMF (Induced Mutant Frequency) ([2]; mouse, 24 h, 8 μg/mL): 750 mutants/1×10^6 cells
Avg. IMF Small Colony ([2]; mouse, 24 h, 8 μg/mL): 417 mutants/1×10^6 cells
Avg. RTG (Relative Total Growth) ([2]; mouse, 24 h, 8 μg/mL): 15.5%

O=c1ccc2ccc(O)cc2o1 [7-hydroxycoumarin, reference compound]
microsomal CLint (in vitro [5]): 57.3 µL/min/mg

CC[C@@]1(O)C(=O)OCc2c1cc1n(c2=O)Cc2cc3c(CN(C)C)c(O)ccc3nc2-1 [topotecan, reference compound]
Kd (DDX5): ≥ 1080 nM

O=P1(N(CCCl)CCCl)NCCCO1 (stereo not shown) [cyclophosphamide (CP), cyclophosphamide]
Average SG ([2]; 4 h, +S9, 15 μg/mL): 7.3
Day 1 Growth Cell Conc. ([2]; 4 h, +S9, 15 μg/mL): 4.79E+05 Cell/mL and 5.44E+05 Cell/mL
Day 2 Growth Cell Conc. ([2]; 4 h, +S9, 15 μg/mL): 1.29E+06 Cell/mL and 1.30E+06 Cell/mL
Relative Suspension Growth (%) ([2]; 4 h, +S9, 15 μg/mL): 52.7% and 58.8%
Suspension Growth (SG) ([2]; 4 h, +S9, 15 μg/mL): 5.9 and 7.7
Average SG ([2]; 4 h, +S9, 17.5 μg/mL): 4.9
Day 1 Growth Cell Conc. ([2]; 4 h, +S9, 17.5 μg/mL): 3.20E+05 Cell/mL and 3.86E+05 Cell/mL
Day 2 Growth Cell Conc. ([2]; 4 h, +S9, 17.5 μg/mL): 1.14E+06 Cell/mL and 1.25E+06 Cell/mL
Relative Suspension Growth (%) ([2]; 4 h, +S9, 17.5 μg/mL): 32.1% and 42.0%
Suspension Growth (SG) ([2]; 4 h, +S9, 17.5 μg/mL): 4.2 and 5.5
Avg. % of IMF Small Colony ([2]; 4 h summary, +S9, 15 μg/mL): 62.1%
Avg. IMF ([2]; 4 h summary, +S9, 15 μg/mL): 1000 ×10^−6
Avg. IMF Small Colony ([2]; 4 h summary, +S9, 15 μg/mL): 621 ×10^−6
Avg. RTG ([2]; 4 h summary, +S9, 15 μg/mL): 21.6%
Avg. % of IMF Small Colony ([2]; 4 h summary, +S9, 17.5 μg/mL): 58.6%
Avg. IMF ([2]; 4 h summary, +S9, 17.5 μg/mL): 1513 ×10^−6
Avg. IMF Small Colony ([2]; 4 h summary, +S9, 17.5 μg/mL): 880 ×10^−6
Avg. RTG ([2]; 4 h summary, +S9, 17.5 μg/mL): 6.7%
